Values after ≈ are worked out from the molar mass of the structure shown.
How the values were obtained:
[1] = Solubility in simulated intestinal fluids (FaSSIF/FeSSIF); details: 25 °C, thermodynamic from solid
[2] = 1.0% DMSO, 24-hour incubation at ambient temperature, maximum theoretical 100 μM; for pH 2 solubility: 0.1N HCl, first value of the cell; for pH 7 solubility: 1×PBS buffer (pH 7.4), second value of the cell
[3] = fasted state simulated intestinal fluid (FaSSIF), fassif
[4] = fed state simulated intestinal fluid (FeSSIF), fessif

Row | SMILES | solubility [1, 3] [µg/mL] | solubility [1, 4] [µg/mL] | pH 2 solubility [2] | pH 7 solubility [2]
1 | CC(C)(C#Cc1ccc(-c2ccc(Cl)c3c(N(C(=O)N[C@@H](CCC(=O)O)C(=O)O)S(C)(=O)=O)nn(CC(F)(F)F)c23)c([C@H](Cc2cc(F)cc(F)c2)NC(=O)Cn2nc(C(F)(F)F)c3c2C(F)(F)[C@@H]2C[C@H]32)n1)S(C)(=O)=O [Compound 68, ((4-chloro-7-(2-((S)-1-(2-((3bS,4aR)-5,5-difluoro-3-(trifluoromethyl)-3b,4,4a,5-tetrahydro-1H-cyclopropa[3,4]cyclopenta[1,2-c]pyrazol-1-yl)acetamido)-2-(3,5-difluorophenyl)ethyl)-6-(3-methyl-3-(methylsulfonyl)but-1-yn-1-yl)pyridin-3-yl)-1-(2,2,2-trifluoroethyl)-1H-indazol-3-yl)(methylsulfonyl)carbamoyl)-L-glutamic acid] | 700 (≈ 613 µM) | 246 (≈ 216 µM) | 1 μM | 18 μM
2 | CN(CCC(=O)O)C(=O)N(c1nn(CC(F)(F)F)c2c(-c3ccc(C#CC(C)(C)S(C)(=O)=O)nc3[C@H](Cc3cc(F)cc(F)c3)NC(=O)Cn3nc(C(F)(F)F)c4c3C(F)(F)[C@@H]3C[C@H]43)ccc(Cl)c12)S(C)(=O)=O [Compound 45, 3-(3-(4-chloro-7-(2-((S)-1-(2-((3bS,4aR)-5,5-difluoro-3-(trifluoromethyl)-3b,4,4a,5-tetrahydro-1H-cyclopropa[3,4]cyclopenta[1,2-c]pyrazol-1-yl)acetamido)-2-(3,5-difluorophenyl)ethyl)-6-(3-methyl-3-(methylsulfonyl)but-1-yn-1-yl)pyridin-3-yl)-1-(2,2,2-trifluoroethyl)-1H-indazol-3-yl)-1-methyl-3-(methylsulfonyl)ureido)propanoic acid] | 14 (≈ 12.8 µM) | 1 (≈ 0.911 µM) | 1 μM | 20 μM
3 | C[C@@H](N)C(=O)OCN(c1nn(CC(F)(F)F)c2c(-c3ccc(C#CC(C)(C)S(C)(=O)=O)nc3[C@H](Cc3cc(F)cc(F)c3)NC(=O)Cn3nc(C(F)(F)F)c4c3C(F)(F)[C@@H]3C[C@H]43)ccc(Cl)c12)S(C)(=O)=O [Compound 26, (N-(4-chloro-7-(2-((S)-1-(2-((3bS,4aR)-5,5-difluoro-3-(trifluoromethyl)-3b,4,4a,5-tetrahydro-1H-cyclopropa[3,4]cyclopenta[1,2-c]pyrazol-1-yl)acetamido)-2-(3,5-difluorophenyl)ethyl)-6-(3-methyl-3-(methylsulfonyl)but-1-yn-1-yl)pyridin-3-yl)-1-(2,2,2-trifluoroethyl)-1H-indazol-3-yl)methylsulfonamido)methyl D-alaninate] | 13 (≈ 12.2 µM) | 89 (≈ 83.2 µM) | 23 μM | 2 μM
4 | CC(C)(C#Cc1ccc(-c2ccc(Cl)c3c(N(C(=O)OC[C@H](CC(=O)O)NC(=O)C(=O)O)S(C)(=O)=O)nn(CC(F)(F)F)c23)c([C@H](Cc2cc(F)cc(F)c2)NC(=O)Cn2nc(C(F)(F)F)c3c2C(F)(F)[C@@H]2C[C@H]32)n1)S(C)(=O)=O [Compound 131] | 816 (≈ 688 µM) | 427 (≈ 360 µM) | 1 μM | 73 μM
5 | CC(C)(C#Cc1ccc(-c2ccc(Cl)c3c(N(C(=O)N[C@@H](CO)C(=O)O)S(C)(=O)=O)nn(CC(F)(F)F)c23)c([C@H](Cc2cc(F)cc(F)c2)NC(=O)Cn2nc(C(F)(F)F)c3c2C(F)(F)[C@@H]2C[C@H]32)n1)S(C)(=O)=O [Compound 58, ((4-chloro-7-(2-((S)-1-(2-((3bS,4aR)-5,5-difluoro-3-(trifluoromethyl)-3b,4,4a,5-tetrahydro-1H-cyclopropa[3,4]cyclopenta[1,2-c]pyrazol-1-yl)acetamido)-2-(3,5-difluorophenyl)ethyl)-6-(3-methyl-3-(methylsulfonyl)but-1-yn-1-yl)pyridin-3-yl)-1-(2,2,2-trifluoroethyl)-1H-indazol-3-yl)(methylsulfonyl)carbamoyl)-L-serine] | 813 (≈ 740 µM) | 120 (≈ 109 µM) | 1 μM | 8 μM
6 | CN(CCCC(=O)O)C(=O)N(c1nn(CC(F)(F)F)c2c(-c3ccc(C#CC(C)(C)S(C)(=O)=O)nc3[C@H](Cc3cc(F)cc(F)c3)NC(=O)Cn3nc(C(F)(F)F)c4c3C(F)(F)[C@@H]3C[C@H]43)ccc(Cl)c12)S(C)(=O)=O [Compound 46, 4-(3-(4-chloro-7-(2-((S)-1-(2-((3bS,4aR)-5,5-difluoro-3-(trifluoromethyl)-3b,4,4a,5-tetrahydro-1H-cyclopropa[3,4]cyclopenta[1,2-c]pyrazol-1-yl)acetamido)-2-(3,5-difluorophenyl)ethyl)-6-(3-methyl-3-(methylsulfonyl)but-1-yn-1-yl)pyridin-3-yl)-1-(2,2,2-trifluoroethyl)-1H-indazol-3-yl)-1-methyl-3-(methylsulfonyl)ureido)butanoic acid] | 9 (≈ 8.1 µM) | 3 (≈ 2.7 µM) | 1 μM | 10 μM

More lines, now with the values ahead:

Row | solubility [1, 3] [µg/mL] | solubility [1, 4] [µg/mL] | pH 2 solubility [2] | pH 7 solubility [2] | SMILES
7 | 2 (≈ 1.78 µM) | 3 (≈ 2.67 µM) | 1 μM | 48 μM | CC(C)(C#Cc1ccc(-c2ccc(Cl)c3c(N(C(=O)OCOP(=O)(O)O)S(C)(=O)=O)nn(CC(F)(F)F)c23)c([C@H](Cc2cc(F)cc(F)c2)NC(=O)Cn2nc(C(F)(F)F)c3c2C(F)(F)[C@@H]2C[C@H]32)n1)S(C)(=O)=O [Compound 90, (phosphonooxy)methyl (4-chloro-7-(2-((S)-1-(2-((3bS,4aR)-5,5-difluoro-3-(trifluoromethyl)-3b,4,4a,5-tetrahydro-1H-cyclopropa[3,4]cyclopenta[1,2-c]pyrazol-1-yl)acetamido)-2-(3,5-difluorophenyl)ethyl)-6-(3-methyl-3-(methylsulfonyl)but-1-yn-1-yl)pyridin-3-yl)-1-(2,2,2-trifluoroethyl)-1H-indazol-3-yl)(methylsulfonyl)carbamate]
8 | 841 (≈ 672 µM) | 589 (≈ 471 µM) | 1 μM | 15 μM | CN(C(=O)N(c1nn(CC(F)(F)F)c2c(-c3ccc(C#CC(C)(C)S(C)(=O)=O)nc3[C@H](Cc3cc(F)cc(F)c3)NC(=O)Cn3nc(C(F)(F)F)c4c3C(F)(F)[C@@H]3C[C@H]43)ccc(Cl)c12)S(C)(=O)=O)[C@@H](CC(=O)O)C(=O)OCOP(=O)(O)O [Compound 88, (S)-3-(3-(4-chloro-7-(2-((S)-1-(2-((3bS,4aR)-5,5-difluoro-3-(trifluoromethyl)-3b,4,4a,5-tetrahydro-1H-cyclopropa[3,4]cyclopenta[1,2-c]pyrazol-1-yl)acetamido)-2-(3,5-difluorophenyl)ethyl)-6-(3-methyl-3-(methylsulfonyl)but-1-yn-1-yl)pyridin-3-yl)-1-(2,2,2-trifluoroethyl)-1H-indazol-3-yl)-1-methyl-3-(methylsulfonyl)ureido)-4-oxo-4-((phosphonooxy)methoxy)butanoic acid]
9 | 778 (≈ 686 µM) | 1250 (≈ 1100 µM) | 1 μM | 77 μM | CC(C)(C#Cc1ccc(-c2ccc(Cl)c3c(N(C(=O)OCCCP(=O)(O)O)S(C)(=O)=O)nn(CC(F)(F)F)c23)c([C@H](Cc2cc(F)cc(F)c2)NC(=O)Cn2nc(C(F)(F)F)c3c2C(F)(F)[C@@H]2C[C@H]32)n1)S(C)(=O)=O [Compound 112, (3-(((4-chloro-7-(2-((S)-1-(2-((3bS,4aR)-5,5-difluoro-3-(trifluoromethyl)-3b,4,4a,5-tetrahydro-1H-cyclopropa[3,4]cyclopenta[1,2-c]pyrazol-1-yl)acetamido)-2-(3,5-difluorophenyl)ethyl)-6-(3-methyl-3-(methylsulfonyl)but-1-yn-1-yl)pyridin-3-yl)-1-(2,2,2-trifluoroethyl)-1H-indazol-3-yl)(methylsulfonyl)carbamoyl)oxy)propyl)phosphonic acid]
10 | 481 (≈ 408 µM) | 189 (≈ 160 µM) | <1/1 μM | <1/1 μM | CC(C)(C#Cc1ccc(-c2ccc(Cl)c3c(N(C(=O)OCC(=O)OCOP(=O)(O)O)S(C)(=O)=O)nn(CC(F)(F)F)c23)c([C@H](Cc2cc(F)cc(F)c2)NC(=O)Cn2nc(C(F)(F)F)c3c2C(F)(F)[C@@H]2C[C@H]32)n1)S(C)(=O)=O [Compound 94, (phosphonooxy)methyl 2-(((4-chloro-7-(2-((S)-1-(2-((3bS,4aR)-5,5-difluoro-3-(trifluoromethyl)-3b,4,4a,5-tetrahydro-1H-cyclopropa[3,4]cyclopenta[1,2-c]pyrazol-1-yl)acetamido)-2-(3,5-difluorophenyl)ethyl)-6-(3-methyl-3-(methylsulfonyl)but-1-yn-1-yl)pyridin-3-yl)-1-(2,2,2-trifluoroethyl)-1H-indazol-3-yl)(methylsulfonyl)carbamoyl)oxy)acetate]
11 | 617 (≈ 540 µM) | 42 (≈ 36.8 µM) | 14 μM | 68 μM | CC(C)(C#Cc1ccc(-c2ccc(Cl)c3c(N(C(=O)OC(CC(=O)O)CC(=O)O)S(C)(=O)=O)nn(CC(F)(F)F)c23)c([C@H](Cc2cc(F)cc(F)c2)NC(=O)Cn2nc(C(F)(F)F)c3c2C(F)(F)[C@@H]2C[C@H]32)n1)S(C)(=O)=O [Compound 125, 3-(((4-chloro-7-(2-((S)-1-(2-((3bS,4aR)-5,5-difluoro-3-(trifluoromethyl)-3b,4,4a,5-tetrahydro-1H-cyclopropa[3,4]cyclopenta[1,2-c]pyrazol-1-yl)acetamido)-2-(3,5-difluorophenyl)ethyl)-6-(3-methyl-3-(methylsulfonyl)but-1-yn-1-yl)pyridin-3-yl)-1-(2,2,2-trifluoroethyl)-1H-indazol-3-yl)(methylsulfonyl)carbamoyl)oxy)pentanedioic acid]

Reference: patent US12404262B2 (priority 2021, dated 2025)
